≈ marks a conversion by molar mass, not a printed value. Where “and” joins values, the source holds several entries; their conditions need not be identical. Equal values may be shown once. Read-outs that look alike come from different tables or passages of the source.
What was measured:
S. pyogenes = assay: In vitro activity against Streptococci (MIC), S. pyogenes; format: cell-based
B. fragilis = assay: In vitro activity against anaerobes (MIC), B. fragilis; format: cell-based; details: Bacteroides fragilis
S. pyogenes A20201 = assay: Protective dose PD50, mice infected with lethal inoculum, oral treatment, S. pyogenes A20201; format: in vivo; details: Streptococcus pyogenes, 120 h
H. influenza A9729 = assay: Protective dose PD50, mice infected with lethal inoculum, oral treatment, H. influenza A9729; format: in vivo; details: Mus musculus, 120 h
Description: The structure activity correlations drawn from the foregoing in vitro studies are born out by the results of in vivo studies in mice. Table 4 is a tabulation of the protective doses for mice infected with a lethal inoculum of a bacteria. Two different bacteria were employed in the studies, one a Gram+ organism and the other a Gram- organism. The protective dose (PD50) is that dose which when administered to a group of infected mice results in 50% survival after five days. Normally untreated infected mice die within three days following injection of the lethal inoculum.
Protective Dose PD50 for Mice Infected with Lethal Inoculum

P. mirabilis A9554 = assay: Protective dose PD50, mice infected with lethal inoculum, oral treatment, P. mirabilis A9554; format: in vivo
H. influenzae = assay: In vitro activity against Haemophilis (MIC), H. influenzae; format: cell-based; details: Haemophilus influenzae, Compound 9 lot 2, read-out: MIC
S. aureus Smith = assay: Protective dose, mice infected with lethal inoculum, oral treatment, S. aureus Smith; format: in vivo; details: for ED50: Staphylococcus aureus, po, 120 h
S. pneumoniae = assay: In vitro activity against Streptococci (MIC), S. pneumoniae; format: cell-based; details: Streptococcus pneumoniae
[1] = test system: Gp Ia: S. aureus Smith A9537, A9497, Terajima, A9534, A9601; details: Staphylococcus aureus
E. coli Juhl = assay: Protective dose, mice infected with lethal inoculum, oral treatment, E. coli Juhl; format: in vivo; details: for ED50: Escherichia coli, po, 120 h
[2] = test system: Gp Ib: S. aureus 193, BX-1633-2 A9606, A15092, Russell, A9602; details: Staphylococcus aureus
C. difficile A21675 = assay: In vitro activity against anaerobes (MIC), C. difficile; format: cell-based; details: Clostridioides difficile; Gp rods; C. difficile A21675; clindamycin resistant; read-out: MIC
C. perfringens A9645 = assay: microbe, parasite or virus in culture; format: cell-based; details: Clostridium perfringens
Gp, rods; Gp, cocci = assay: microbe, parasite or virus in culture; format: cell-based, C. difficile; C. perfringens; P. acnes; P. anaerobius; details: read-out: MIC, Geometric Mean
S. aureus BX-1633 = assay: Protective dose PD50, mice infected with lethal inoculum, oral treatment, S. aureus BX-1633; format: in vivo; details: Staphylococcus aureus, BX1633, 120 h
bacteria = assay: Antibacterial activity, general statements; details: in words
[3] = Metabolism in the rat (urine after oral administration); format: in vivo, Wister rats; details: oral 100 mg/kg; urine 24 hours
Procedure: Refer to Procedure 43. Compound No. 37 is the 3,4-dihydroxyphenyl compound and Compound No. 42 is the 3-methoxy-4-hydroxyphenyl compound.
Six male Wister rats (400-600 g) were placed in steel metabolic cages after the oral administration of Compound 37 at the dose of 100 mg/kg and urine was collected over a period of 24 hours. The rats were fed their regular diet and given water during the experiment.
The urine (ca. 90 ml) was adjusted to pH 3 with N hydrochloric acid and filtered to remove a precipitate. The filtrate was chromatographed on a column packed with 300 ml of HP-20 by eluting with 2 L of water and 2 L of 30% methanol under monitoring the HPLC. The fractions containing the bioactive components of the 30% methanol eluate were collected, concentrated to 10 ml and lyophilized to give 390 mg of brown solid. A solution of the solid in 20 ml of water was chromatographed on a column packed with 200 ml of the packing of a prepPAK-C18 cartridge (Waters) by eluting with water, 5% methanol, and 10% methanol, successively. The first half of the 5% methanol eluate was concentrated to 5 ml and lyophilized to give 44 mg of Compound 37 (70% pure) containing impurities derived from urine. The second half of the 5% methanol eluate was concentrated to 5 ml and lyophilized to give 36 mg of product, which was a mixture of Compound 37, Compound 42, and impurities derived from urine. […]

[4] = mouse, in vivo, po
in vivo = details: mouse; for half-life: T1/2
[5] = oral, value in parentheses: cephalexin in the same run as the compound of that line, 7200 min
[6] = read-out: Minimum Inhibitory Concentration Gp Ia, Mueller-Hinton agar, run 2, average of five organisms
[7] = read-out: Minimum Inhibitory Concentration Gp Ib, Mueller-Hinton agar, run 2, average of five organisms

CC1=C(C(=O)O)N2C(=O)[C@@H](NC(=O)[C@H](N)c3ccccc3)[C@H]2SC1 [Cephalexin]
MIC (S. pyogenes; S. pyogenes A9604, Compound 9 lot 2): 0.8 µg/mL (≈ 2.3 µM) | MIC (S. pyogenes; S. pyogenes A15040, Compound 9 lot 2): 0.8 µg/mL (≈ 2.3 µM) | MIC (S. pyogenes; S. pyogenes A20065, Compound 9 lot 2): 0.8 µg/mL (≈ 2.3 µM) | MIC (S. pyogenes; S. pyogenes A20201, Compound 9 lot 2): 0.8 µg/mL (≈ 2.3 µM) | MIC (S. pyogenes; S. pyogenes Dick, Compound 9 lot 2): 0.8 µg/mL (≈ 2.3 µM) | MIC (S. pyogenes; Streptococcus pyogenes): 0.8 µg/mL (≈ 2.3 µM) | MIC (S. pyogenes; Streptococcus pyogenes, read-out: MIC, Geometric Mean): 0.8 µg/mL (≈ 2.3 µM) | MIC (B. fragilis; B. fragilis A20928-1, A21900, A20935, β-lactamase (-), read-out: MIC, Geometric Mean): 9.9 µg/mL (≈ 28.5 µM) | MIC (B. fragilis; B. fragilis A20928-1, β-lactamase (-)): 12.5 µg/mL (≈ 36 µM) | MIC (B. fragilis; B. fragilis A22021, β-lactamase (+), read-out: MIC): 100 µg/mL (≈ 288 µM) | MIC (B. fragilis; B. fragilis A22053, A22021, A22693, β-lactamase (+), read-out: MIC, Geometric Mean): > 75 µg/mL | MIC (B. fragilis; B. fragilis A22053, β-lactamase (+), read-out: MIC): 25 µg/mL (≈ 72 µM) | MIC (B. fragilis; B. fragilis A22533, β-lactamase (+), read-out: MIC): > 100 µg/mL | MIC (B. fragilis; B. fragilis A22693, β-lactamase (+), read-out: MIC): > 100 µg/mL | MIC (B. fragilis; B. fragilis A22695, A22533, β-lactamase (+), read-out: MIC, Geometric Mean): > 100 µg/mL | MIC (B. fragilis; B. fragilis A22695, β-lactamase (+), read-out: MIC): 100 µg/mL (≈ 288 µM) | ED50 (S. pyogenes A20201): 0.74 mg/kg | ED50 (H. influenza A9729): 18 mg/kg | Protective Dose PD50 (P. mirabilis A9554): 12.5 | MIC (H. influenzae; H. influenzae A22157): 3.1 µg/mL (≈ 8.92 µM) | MIC (H. influenzae; H. influenzae A22481): 3.1 µg/mL (≈ 8.92 µM) | MIC (H. influenzae; H. influenzae A22491): 3.1 µg/mL (≈ 8.92 µM) | ED50 (S. aureus Smith; read-out: Protective dose (PD50) of cephalexin in the same run, S. aureus Smith, oral, value in parentheses: cephalexin in the same run as the compound of that line): 0.31 mg/kg | Protective dose (PD50) of cephalexin in the same run, S. aureus Smith (S. aureus Smith; [5]): 0.27 mg/kg and 0.22 mg/kg | MIC (S. pneumoniae): 3.1 µg/mL (≈ 8.92 µM) | MIC (S. pneumoniae; S. pneumoniae A9585, Compound 9 lot 2): 3.1 µg/mL (≈ 8.92 µM) | MIC (S. pneumoniae; S. pneumoniae A15069, Compound 9 lot 2): 3.1 µg/mL (≈ 8.92 µM) | MIC (S. pneumoniae; S. pneumoniae A20759, Compound 9 lot 2): 3.1 µg/mL (≈ 8.92 µM) | MIC (S. pneumoniae; S. pneumoniae Type I, Compound 9 lot 2): 3.1 µg/mL (≈ 8.92 µM) | MIC (S. pneumoniae; S. pneumoniae Type III, Compound 9 lot 2): 3.1 µg/mL (≈ 8.92 µM) | MIC (S. pneumoniae; read-out: MIC, Geometric Mean): 3.1 µg/mL (≈ 8.92 µM) | MIC ([1]; read-out: Minimum Inhibitory Concentration Gp Ia, Mueller-Hinton agar, run 1, average of five organisms): 1.2 µg/mL (≈ 3.45 µM) | MIC [1, 6]: 0.7 µg/mL (≈ 2.01 µM) | ED50 (E. coli Juhl; read-out: Protective dose (PD50) of cephalexin in the same run, E. coli Juhl, oral, value in parentheses: cephalexin in the same run as the compound of that line): 8.4 mg/kg | Protective dose (PD50) of cephalexin in the same run, E. coli Juhl (E. coli Juhl; [5]): 8.2 mg/kg | MIC ([2]; read-out: Minimum Inhibitory Concentration Gp Ib, Mueller-Hinton agar, run 1, average of five organisms): 4.1 µg/mL (≈ 11.8 µM) | MIC [2, 7]: 3.6 µg/mL (≈ 10.4 µM) | MIC (C. difficile A21675): 100 µg/mL (≈ 288 µM) | MIC (C. perfringens A9645): 12.5 µg/mL (≈ 36 µM) | MIC (Gp, rods; Gp, cocci): 11 µg/mL (≈ 31.7 µM) | ED50 (S. aureus BX-1633): 17 mg/kg

C/C=C\C1=C(C(=O)O)N2C(=O)[C@@H](NC(=O)[C@H](N)c3ccc(O)c(O)c3)[C@H]2SC1 [Compound 37, 7β-[D(-)-2-Amino-2-(3,4-dihydroxyphenyl)acetamido]-3-[(Z)-1-propen-1-yl]-3-cephem-4-carboxylic Acid]
antibacterial activity (bacteria): highly active substance against both the Gram+ and Gram- bacteria | metabolism in the rat [3]: metabolized in the rat to Compound No. 42 | blood levels following oral administration [4]: exceptionally high blood levels | ED50 (S. aureus Smith; oral, 50% survival for 5 days, groups of 5 mice, read-out: Protective dose (PD50), S. aureus Smith): 0.13 mg/kg | MIC [1, 6]: 6.3 µg/mL (≈ 15.5 µM) | MIC ([1]; read-out: Minimum inhibitory Concentration Gp Ia, Test Medium Comparison, A: Mueller-Hinton agar, average values): 4.8 µg/mL (≈ 11.8 µM) | MIC ([1]; read-out: Minimum inhibitory Concentration Gp Ia, Test Medium Comparison, B: Nutrient agar, average values): 0.4 µg/mL (≈ 0.987 µM) | ED50 (E. coli Juhl; oral, 50% survival for 5 days, groups of 5 mice, read-out: Protective dose (PD50), E. coli Juhl): 0.44 mg/kg | activity against the Gram- infection (E. coli Juhl; in words): more active against the Gram- infection | MIC [2, 7]: 7.2 µg/mL (≈ 17.8 µM) | MIC ([2]; read-out: Minimum inhibitory Concentration Gp Ib, Test Medium Comparison, A: Mueller-Hinton agar, average values): 6.3 µg/mL (≈ 15.5 µM) | MIC ([2]; read-out: Minimum inhibitory Concentration Gp Ib, Test Medium Comparison, B: Nutrient agar, average values): 0.61 µg/mL (≈ 1.5 µM) | AUC (in vivo; im, 20 mg/kg, AUC*): 233 µg·h/mL | Cmax (in vivo; im, 20 mg/kg): 86 µg/mL | half-life (in vivo; im, 20 mg/kg): 1.2 h | AUC (in vivo; po, 20 mg/kg, AUC*): 270 µg·h/mL | Cmax (in vivo; po, 20 mg/kg): 58 µg/mL | half-life (in vivo; po, 20 mg/kg): 5.1 h | AUC (in vivo; po, 100 mg/kg, AUC): 666 µg·h/mL | Cmax (in vivo; po, 100 mg/kg): 180 µg/mL | half-life (in vivo; po, 100 mg/kg): 2.5 h

— US4520022A, “Substituted vinyl cephalosporins” (priority 1983, dated 1985)
